Here are results for seven compounds from article PMC10478077 (Journal of medicinal chemistry, 2019).

Molecules are shown by their SMILES.

For one assay, the system named is Mtb. The conditions noted are these: cited from earlier work.
The subject of assay [1] is H37Rv Mycobacterium tuberculosis. In words: Antimicrobial susceptibility testing. The assay is classed as cell-based. Particulars: for bactericidal activity: H37Rv Mtb.
The next assay deals with Mtb fumarase (Mycobacterium tuberculosis, UniProt P9WN93). The assay can be described thus: Biochemical assay of Mtb fumarase enzymatic activity. The conditions noted are these: for Inhibition (%) at 50 μM: 50 μM ligand concentration.
Chain of Mtb fumarase (P9WN93 whole entry): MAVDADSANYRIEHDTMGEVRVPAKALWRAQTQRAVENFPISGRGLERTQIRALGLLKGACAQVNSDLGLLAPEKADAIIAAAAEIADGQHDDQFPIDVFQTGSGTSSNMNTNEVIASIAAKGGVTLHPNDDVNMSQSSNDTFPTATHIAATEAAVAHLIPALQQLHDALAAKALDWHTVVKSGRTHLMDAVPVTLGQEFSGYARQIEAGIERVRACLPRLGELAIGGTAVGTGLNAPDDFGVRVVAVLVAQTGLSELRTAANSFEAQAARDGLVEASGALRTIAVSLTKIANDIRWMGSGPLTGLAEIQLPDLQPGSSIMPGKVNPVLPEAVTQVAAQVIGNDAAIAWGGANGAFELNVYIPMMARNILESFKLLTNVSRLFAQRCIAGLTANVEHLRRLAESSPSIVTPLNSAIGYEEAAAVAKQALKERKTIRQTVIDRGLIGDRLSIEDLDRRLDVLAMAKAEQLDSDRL

For the compound `COc1ccc(S(=O)(=O)N2CCCCCC2)cc1NC(=O)Cc1nnc(O)c2ccccc12` [Compound 1, N-(5-(Azepan-1-ylsulfonyl)-2-methoxyphenyl)-2-(4-oxo-3,4-dihydrophthalazin-1-yl)acetamide], the bactericidal properties result with Mtb is “did not exhibit bactericidal properties”. In addition, in assay [1], the bactericidal activity entry was “no bactericidal activity”.
With `COc1ccc(S(=O)(=O)N2CCCCCC2)cc1NC(=O)Cc1ccncc1` [Compound 15i, N-(5-(Azepan-1-ylsulfonyl)-2-methoxyphenyl)-2-(pyridin-4-yl)acetamide], at Mtb fumarase, the “Inhibition (%) at 50 μM” value is recorded as “eliminated inhibitory activity”.
With `COc1ccc(S(=O)(=O)N2CCCCCC2)cc1NC(=O)Cc1noc2ccccc12` [Compound 15e, N-(5-(Azepan-1-ylsulfonyl)-2-methoxyphenyl)-2-(benzo[d]isoxazol-3-yl)acetamide], at Mtb fumarase, the “Inhibition (%) at 50 μM” value is given as “failed to provide inhibition”.
In the case of `COc1ccc(S(=O)(=O)N2CCCCCC2)cc1NC(=O)Cc1coc2ccccc12` [Compound 15d, N-(5-(Azepan-1-ylsulfonyl)-2-methoxyphenyl)-2-(benzofuran-3-yl)acetamide], the “Inhibition (%) at 50 μM” value on Mtb fumarase is “failed to provide inhibition”.
Take `COc1ccc(S(=O)(=O)N2CCCCCCC2)cc1NC(=O)Cc1n[nH]c(=O)c2ccccc12` [Compound 16b, N-(5-(Azocan-1-ylsulfonyl)-2-methoxyphenyl)-2-(4-oxo-3,4-dihydrophthalazin-1-yl)acetamide]: in assay [1] (7H9/DPPC medium), the “H37Rv Mtb MIC” value is “highly active”. Moreover, the bactericidal activity entry in assay [1] is “activity was observed”.
In the case of `COc1ccc(S(=O)(=O)N2CCc3ccccc3CC2)cc1NC(=O)Cc1n[nH]c(=O)c2ccccc12` [Compound 16l, N-(2-Methoxy-5-((1,2,4,5-tetrahydro-3H-benzo[d]azepin-3-yl)sulfonyl)phenyl)-2-(4-oxo-3,4-dihydrophthalazin-1-yl)acetamide], at Mtb fumarase (relative to 1 (IC50 2.0 μM)), the “IC50 fold lower than that of 1” value was found to be 3 fold.
As to `COc1ccc(S(=O)(=O)N2CCCCCC2)cc1NC(=O)Cn1cnc2ccccc21` [Compound 15f, N-(5-(Azepan-1-ylsulfonyl)-2-methoxyphenyl)-2-(1H-benzo[d]imidazol-1-yl)acetamide], at Mtb fumarase, the “Inhibition (%) at 50 μM” value was “failed to provide inhibition”.
